Patent US11786492B2, “Therapeutic agent for phosphodiesterase inhibition and its related disorders” (Novalead Pharma Inc, priority 2017, dated 2023)
Where two headings read alike, the source gives them in different places. Marks after values point to notes of the source that are not given here. Blank lines part the entries; values can stand above or below the molecule they belong to.

Legend:
[1] = system: Imiquimod induced psoriasis in BALB/c mice; test: Imiquimod induced psoriasis model in Balb/c mice; settings: for % inhibition of Ear inflamn. / Histopathology Scores Epidermal Thickness / Histopathology Scores Hyperkeratosis / Histopathology Scores Rete Peg Prolifern. / PASI score / Spleen weight / IL23 Levels (pg/ml): twice daily; for IL23 Levels (pg/ml): ear tissue lysate
Method: BALB/c mice (Sex: Female, Age: 7-8 Weeks) were used for induction of psoriasis using IMQ. Topical application of imiquimod (IMQ) in mice can induce and exacerbate psoriasis closely resembling human psoriasis. […] 3%, 4% and 5% and positive control of Tenovate (Clobetasol) 0.05% cream. In all 63 mg cream containing 5% of IMQ was applied to dorsal area (shaved back) and right ear for 8 days. Topical formulations from Example 7 were used during this experiment.
The parameters investigated were ear thickness change, % inhibition of ear inflammation, Psoriatic Area Severity Index (PASI). Histopathology was performed of right ear and dorsal skin by H & E staining. The biomarker in this study was inflammatory cytokine IL-23 analyzed by ELISA obtained from tissue lysate of ear region where IMQ and doses were applied.

[2] = system: HaCaT cells; test: Keratinocyte (HaCaT) proliferation, MTT assay; assay type: cell-based, human; settings: for IC50: Homo sapiens, HaCaT, read-out: IC50 of cell proliferation
Method: An experiment to check keratinocyte proliferation inhibitory activity of selected compounds of Formula-I was performed to establish its application in skin disorders related to keratinocyte hyper-proliferation. HaCaT cells, a human immortalized cell line derived from keratinocytes, representing hyper-proliferating keratinocytes was investigated for anti-proliferative potential of the selected compounds by MTT assay.

[3] = biological target: T1, PDE2 (Human platelets) (Homo sapiens, UniProt O00408); test: Radiolabeled enzyme assay PDE2; assay type: biochemical; settings: read-out: % inhibition at 30 μM, 1.01 μM [3H]cAMP+cAMP
T1 construct: PDE2 (Human platelets); from tissue; host or cells: human platelets
Method: (§1) Enzyme assays have been optimized for incubation time, substrate concentration and method of end-product determination.

[4] = biological target: T2, PDE5 (Human platelets) (Homo sapiens, UniProt O76074); test: Radiolabeled enzyme assay PDE5; assay type: biochemical; settings: read-out: % inhibition at 30 μM, 1.01 μM [3H]cGMP+cGMP
T2 construct: PDE5 (Human platelets); from tissue; host or cells: human platelets
Method: as §1

[5] = biological target: T3, PDE3 (Human platelets) (Homo sapiens, UniProt Q14432); test: Radiolabeled enzyme assay PDE3; assay type: biochemical; settings: read-out: % inhibition at 30 μM, 1.01 μM [3H]cAMP+cAMP
T3 construct: PDE3 (Human platelets); from tissue; host or cells: human platelets
Method: as §1

[6] = system: PDE1 (Bovine brain); test: Radiolabeled enzyme assay PDE1; assay type: biochemical; settings: 1.01 μM [3H]cAMP+cAMP
Method: as §1

[7] = system: PDE4 (Human U937 cells); test: Radiolabeled enzyme assay PDE4; assay type: biochemical; settings: 1.01 μM [3H]cAMP+cAMP
Method: as §1

[8] = biological target: PDE4C (Homo sapiens, UniProt Q08493); test: Fluorescence polarization assay PDE4C; assay type: biochemical; settings: substrate cAMP
Method: (§2) An experiment to check inhibition of various subtypes of the target Phosphodiesterase (PDE) enzyme in in-vitro assay was performed. […] PDE1A, PDE2A, PDE4A, PDE4B, PDE4C, PDE4D, PDE5A, PDE7A, PDE9A, PDE10A.

[9] = biological target: PDE7A (Homo sapiens, UniProt Q13946); test: Fluorescence polarization assay PDE7A; assay type: biochemical; settings: substrate cAMP
Method: as §2

[10] = biological target: PDE5A (Homo sapiens, UniProt O76074); test: Fluorescence polarization assay PDE5A; assay type: biochemical; settings: substrate cGMP
Method: as §2

T3 sequence (Q14432 whole entry): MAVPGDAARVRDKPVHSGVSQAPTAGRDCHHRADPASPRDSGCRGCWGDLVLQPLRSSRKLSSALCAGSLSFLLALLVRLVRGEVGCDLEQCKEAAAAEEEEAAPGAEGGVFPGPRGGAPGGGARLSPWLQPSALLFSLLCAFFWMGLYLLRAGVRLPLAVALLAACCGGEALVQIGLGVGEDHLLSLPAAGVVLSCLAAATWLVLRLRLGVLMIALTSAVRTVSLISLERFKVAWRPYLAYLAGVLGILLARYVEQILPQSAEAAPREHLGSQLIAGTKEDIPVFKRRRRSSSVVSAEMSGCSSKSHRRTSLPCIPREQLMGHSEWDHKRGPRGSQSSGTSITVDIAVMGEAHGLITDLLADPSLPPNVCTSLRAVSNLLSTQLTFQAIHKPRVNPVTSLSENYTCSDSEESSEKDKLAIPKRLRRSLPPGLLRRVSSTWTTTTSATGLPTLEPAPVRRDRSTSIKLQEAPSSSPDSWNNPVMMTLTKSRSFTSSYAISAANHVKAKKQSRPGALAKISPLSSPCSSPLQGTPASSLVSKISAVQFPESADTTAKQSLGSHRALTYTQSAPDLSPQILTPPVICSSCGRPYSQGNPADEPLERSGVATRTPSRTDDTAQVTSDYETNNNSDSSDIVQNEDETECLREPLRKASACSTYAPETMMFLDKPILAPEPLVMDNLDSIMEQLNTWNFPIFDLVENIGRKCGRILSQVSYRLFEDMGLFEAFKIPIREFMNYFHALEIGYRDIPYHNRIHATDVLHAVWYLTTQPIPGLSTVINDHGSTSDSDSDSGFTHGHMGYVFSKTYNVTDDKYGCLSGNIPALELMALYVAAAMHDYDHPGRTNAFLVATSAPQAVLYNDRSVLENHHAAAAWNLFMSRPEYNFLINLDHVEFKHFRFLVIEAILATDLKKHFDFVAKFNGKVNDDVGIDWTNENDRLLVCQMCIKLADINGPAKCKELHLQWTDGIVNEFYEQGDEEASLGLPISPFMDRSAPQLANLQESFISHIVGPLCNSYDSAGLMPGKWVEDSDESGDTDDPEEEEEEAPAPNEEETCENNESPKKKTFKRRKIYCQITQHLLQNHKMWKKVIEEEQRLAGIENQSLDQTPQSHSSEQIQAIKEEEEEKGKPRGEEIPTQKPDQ
T1 sequence (O00408 whole entry): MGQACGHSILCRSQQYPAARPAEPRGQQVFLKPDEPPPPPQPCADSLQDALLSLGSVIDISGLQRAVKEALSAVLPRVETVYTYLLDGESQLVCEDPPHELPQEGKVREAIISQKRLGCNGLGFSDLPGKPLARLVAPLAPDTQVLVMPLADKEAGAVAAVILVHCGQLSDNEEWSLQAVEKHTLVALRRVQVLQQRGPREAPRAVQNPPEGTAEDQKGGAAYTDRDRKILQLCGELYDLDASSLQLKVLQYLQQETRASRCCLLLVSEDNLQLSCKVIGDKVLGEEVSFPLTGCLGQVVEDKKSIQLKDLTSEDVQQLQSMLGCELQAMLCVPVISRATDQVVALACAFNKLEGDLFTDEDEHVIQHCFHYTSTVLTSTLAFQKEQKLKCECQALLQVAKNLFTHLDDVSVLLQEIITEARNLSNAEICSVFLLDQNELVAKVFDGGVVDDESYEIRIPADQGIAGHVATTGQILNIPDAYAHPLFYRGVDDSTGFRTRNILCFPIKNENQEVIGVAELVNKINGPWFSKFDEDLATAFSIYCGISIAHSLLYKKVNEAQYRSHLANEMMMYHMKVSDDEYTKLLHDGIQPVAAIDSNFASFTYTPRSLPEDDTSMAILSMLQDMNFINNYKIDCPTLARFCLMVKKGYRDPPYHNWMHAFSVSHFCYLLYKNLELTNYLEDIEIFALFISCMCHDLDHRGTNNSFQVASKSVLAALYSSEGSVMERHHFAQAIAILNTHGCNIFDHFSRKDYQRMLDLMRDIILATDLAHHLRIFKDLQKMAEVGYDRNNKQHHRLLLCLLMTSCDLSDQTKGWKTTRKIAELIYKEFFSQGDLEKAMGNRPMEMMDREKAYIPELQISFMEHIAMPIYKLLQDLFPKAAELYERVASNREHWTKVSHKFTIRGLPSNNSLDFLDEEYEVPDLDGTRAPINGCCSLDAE
Sequence of PDE4C (Q08493 whole entry, species assumed): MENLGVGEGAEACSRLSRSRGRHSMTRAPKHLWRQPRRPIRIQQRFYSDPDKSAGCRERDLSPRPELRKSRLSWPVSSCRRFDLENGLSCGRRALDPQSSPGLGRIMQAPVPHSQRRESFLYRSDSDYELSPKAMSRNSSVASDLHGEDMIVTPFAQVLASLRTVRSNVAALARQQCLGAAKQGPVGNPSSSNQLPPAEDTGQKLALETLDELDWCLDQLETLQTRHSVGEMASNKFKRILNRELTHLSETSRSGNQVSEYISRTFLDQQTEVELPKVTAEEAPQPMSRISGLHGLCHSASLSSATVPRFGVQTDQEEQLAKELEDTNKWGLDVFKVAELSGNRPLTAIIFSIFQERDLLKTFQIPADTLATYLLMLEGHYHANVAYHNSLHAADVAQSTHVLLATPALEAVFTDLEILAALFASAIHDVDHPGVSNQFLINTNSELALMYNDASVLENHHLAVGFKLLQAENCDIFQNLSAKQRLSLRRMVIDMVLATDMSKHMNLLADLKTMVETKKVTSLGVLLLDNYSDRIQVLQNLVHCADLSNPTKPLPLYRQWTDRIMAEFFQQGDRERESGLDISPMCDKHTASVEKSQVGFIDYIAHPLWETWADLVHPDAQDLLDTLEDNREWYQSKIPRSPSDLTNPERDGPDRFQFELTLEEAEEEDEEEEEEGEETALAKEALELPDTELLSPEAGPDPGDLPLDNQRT
Sequence of PDE7A (Q13946 whole entry, species assumed): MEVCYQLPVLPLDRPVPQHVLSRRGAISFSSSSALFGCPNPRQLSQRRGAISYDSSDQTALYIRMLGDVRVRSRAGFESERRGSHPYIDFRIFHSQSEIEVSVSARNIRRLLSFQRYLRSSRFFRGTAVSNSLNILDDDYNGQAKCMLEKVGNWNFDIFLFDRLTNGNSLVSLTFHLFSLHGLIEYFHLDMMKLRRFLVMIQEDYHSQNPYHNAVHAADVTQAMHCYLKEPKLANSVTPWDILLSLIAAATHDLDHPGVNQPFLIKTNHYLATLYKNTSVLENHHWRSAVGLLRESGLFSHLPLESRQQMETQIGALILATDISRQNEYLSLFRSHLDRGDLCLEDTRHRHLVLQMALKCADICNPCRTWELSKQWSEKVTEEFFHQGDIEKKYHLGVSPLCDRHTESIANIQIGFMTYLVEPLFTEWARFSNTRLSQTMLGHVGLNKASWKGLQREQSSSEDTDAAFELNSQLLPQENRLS

inhibition at 30 µM [3]: 13%
inhibition at 30 µM [4]: 9%
inhibition at 30 µM [5]: -4%
% inhibition at 30 μM [6]: 18%
Structure (SMILES): CC(=O)Oc1ccccc1C(=O)Nc1ncc([N+](=O)[O-])s1 [Nitazoxanide]
% inhibition of Ear inflamn. ([1]; 3% topical): −5.9%
Histopathology Scores Epidermal Thickness ([1]; 3% topical): 5.6 ± 0.4
Histopathology Scores Hyperkeratosis ([1]; 3% topical): 1.0 ± 0.0^$
Histopathology Scores Rete Peg Prolifern. ([1]; 3% topical): 1.2 ± 0.2
PASI score ([1]; 3% topical): 14.2 ± 5.1
Spleen weight ([1]; 3% topical, Day 9): 203.6 ± 22.6 mg
IL23 Levels (pg/ml) ([1]; 3% topical): 147.79^# pg/ml
% inhibition of Ear inflamn. ([1]; 4% topical): 26.1%
Histopathology Scores Epidermal Thickness ([1]; 4% topical): 4.7 ± 0.3
Histopathology Scores Hyperkeratosis ([1]; 4% topical): 1.3 ± 0.2
Histopathology Scores Rete Peg Prolifern. ([1]; 4% topical): 1.0 ± 0.3
PASI score ([1]; 4% topical): 21.5 ± 3.4
Spleen weight ([1]; 4% topical, Day 9): 274.7 ± 54.3 mg
IL23 Levels (pg/ml) ([1]; 4% topical): 128.67* pg/ml
% inhibition of Ear inflamn. ([1]; 5% topical): 40.9%
Histopathology Scores Epidermal Thickness ([1]; 5% topical): 5.3 ± 0.6
Histopathology Scores Hyperkeratosis ([1]; 5% topical): 1.1 ± 0.1
Histopathology Scores Rete Peg Prolifern. ([1]; 5% topical): 1.1 ± 0.1
PASI score ([1]; 5% topical): 13.1 ± 1.6
Spleen weight ([1]; 5% topical, Day 9): 204.1 ± 15.3 mg
IL23 Levels (pg/ml) ([1]; 5% topical): 89.45* pg/ml
Spleen weight vs disease control (in words) ([1]; Niclosamide 2%, Nitazoxanide 3% and 5%, Clobetasol 0.05%, Day 9): marginal reduction in spleen weight
IL-23 level in ear tissue homogenates (in words) ([1]; different doses): reduction of IL-23 level
Hyperkeratosis (in words) ([1]; ear lobe histopathology): significant reduction in Hyperkeratosis
Cell proliferation (% of Control) ([2]; 0.01 μM, 24 h): 126.3 % of Control
Cell proliferation (% of Control) ([2]; 0.01 μM, 48 h): 113.7 % of Control
Cell proliferation (% of Control) ([2]; 0.01 μM, 72 h): 114.6 % of Control
Cell proliferation (% of Control) ([2]; 0.1 μM, 24 h): 114.3 % of Control
Cell proliferation (% of Control) ([2]; 0.1 μM, 48 h): 115.2 % of Control
Cell proliferation (% of Control) ([2]; 0.1 μM, 72 h): 102.4 % of Control
Cell proliferation (% of Control) ([2]; 0.5 μM, 24 h): 120.3 % of Control
Cell proliferation (% of Control) ([2]; 0.5 μM, 48 h): 113.4 % of Control
Cell proliferation (% of Control) ([2]; 0.5 μM, 72 h): 106.2 % of Control
Cell proliferation (% of Control) ([2]; 1 μM, 24 h): 123 % of Control
Cell proliferation (% of Control) ([2]; 1 μM, 48 h): 110.8 % of Control
Cell proliferation (% of Control) ([2]; 1 μM, 72 h): 101.7 % of Control
Cell proliferation (% of Control) ([2]; 5 μM, 24 h): 121.6 % of Control
Cell proliferation (% of Control) ([2]; 5 μM, 48 h): 91.8 % of Control
Cell proliferation (% of Control) ([2]; 5 μM, 72 h): 82.9 % of Control
Cell proliferation (% of Control) ([2]; 10 μM, 24 h): 103.8 % of Control
Cell proliferation (% of Control) ([2]; 10 μM, 48 h): 77 % of Control
Cell proliferation (% of Control) ([2]; 10 μM, 72 h): 69.5 % of Control
Cell proliferation (% of Control) ([2]; 50 μM, 24 h): 92.6 % of Control
Cell proliferation (% of Control) ([2]; 50 μM, 48 h): 69.6 % of Control
Cell proliferation (% of Control) ([2]; 50 μM, 72 h): 49.6 % of Control
Cell proliferation (% of Control) ([2]; 100 μM, 24 h): 89.7 % of Control
Cell proliferation (% of Control) ([2]; 100 μM, 48 h): 61 % of Control
Cell proliferation (% of Control) ([2]; 100 μM, 72 h): 33.1 % of Control
IC50 ([2]; 72 h): 39.9 µM
% inhibition at 30 μM [7]: 89%

IC50 [8]: 366 µM
IC50 [9]: 134 µM
IC50 [10]: 136 µM
Structure (SMILES): O=C(Nc1ncc([N+](=O)[O-])s1)c1ccccc1O [Tizoxanide]
Cell proliferation (% of Control) ([2]; 0.01 μM, 24 h): 98.2 % of Control
Cell proliferation (% of Control) ([2]; 0.01 μM, 48 h): 109.5 % of Control
Cell proliferation (% of Control) ([2]; 0.01 μM, 72 h): 87.4 % of Control
Cell proliferation (% of Control) ([2]; 0.1 μM, 24 h): 93.9 % of Control
Cell proliferation (% of Control) ([2]; 0.1 μM, 48 h): 120.1 % of Control
Cell proliferation (% of Control) ([2]; 0.1 μM, 72 h): 82.7 % of Control
Cell proliferation (% of Control) ([2]; 0.5 μM, 24 h): 93.2 % of Control
Cell proliferation (% of Control) ([2]; 0.5 μM, 48 h): 108.9 % of Control
Cell proliferation (% of Control) ([2]; 0.5 μM, 72 h): 87.7 % of Control
Cell proliferation (% of Control) ([2]; 1 μM, 24 h): 99.7 % of Control
Cell proliferation (% of Control) ([2]; 1 μM, 48 h): 112.4 % of Control
Cell proliferation (% of Control) ([2]; 1 μM, 72 h): 81 % of Control
Cell proliferation (% of Control) ([2]; 5 μM, 24 h): 101.6 % of Control
Cell proliferation (% of Control) ([2]; 5 μM, 48 h): 89.3 % of Control
Cell proliferation (% of Control) ([2]; 5 μM, 72 h): 77.9 % of Control
Cell proliferation (% of Control) ([2]; 10 μM, 24 h): 94.9 % of Control
Cell proliferation (% of Control) ([2]; 10 μM, 48 h): 74.1 % of Control
Cell proliferation (% of Control) ([2]; 10 μM, 72 h): 64.3 % of Control
Cell proliferation (% of Control) ([2]; 50 μM, 24 h): 67.3 % of Control
Cell proliferation (% of Control) ([2]; 50 μM, 48 h): 59.9 % of Control
Cell proliferation (% of Control) ([2]; 50 μM, 72 h): 38 % of Control
Cell proliferation (% of Control) ([2]; 100 μM, 24 h): 53.5 % of Control
Cell proliferation (% of Control) ([2]; 100 μM, 48 h): 38.6 % of Control
Cell proliferation (% of Control) ([2]; 100 μM, 72 h): 22.8 % of Control
IC50 ([2]; 48 h): 59.9 µM
IC50 ([2]; 72 h): 22.4 µM
